The text below walks through data of ChEMBL document CHEMBL1201862, “PubChem BioAssay data set” (2004).

Some test systems named below: EKVX; HCT-15; HOP-62; Hs-578T; MCF7; NCI-H23; NCI-H522; OVCAR-3; RPMI-8226; RXF 393; SK-MEL-2; SK-MEL-5; SK-OV-3; SNB-19; LOX IMVI.
Experiment in all cases: NCI tumour cell line growth inhibition, 48 h

Molecules are shown by their SMILES.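 The compound was tested at five concentrations on cells cultured in 96-well plates, with a 48-hour exposure period. GI50: concentration for 50% inhibition of growth.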 Activity calls are given as the source filed them. Cut-off read from the data, not from the text of the source: active = GI50 up to about 1.1 µM and inactive = higher. Starred links: 1 amine or outer side, 2 acyl side, 3 side chain; linkers in the order of their positions; H or OH if unused. Positions of bridges follow the written chain, without caps; N, C: chain ends. Non-standard residues stand in square brackets, D forms with d. Residues, ends and D or L forms follow the SMILES beside them. Chains are numbered I, II in the order given. Actinocin(9to1) = Cc1c2oc3c(C)ccc(C(=O)[*:1])c3nc-2c(C(=O)[*:2])c(N)c1=O; NMeV = CN[CH](C(=O)O)C(C)C; Sar = CNCC(=O)O

Consider `COc1cc(/C=C(\C#N)c2nc3ccccc3o2)ccc1O`, for which the GI50 was 21.6 µM (inactive) with EKVX; 16.4 µM with HCT-15; 21 µM (inactive) in the experiment on HOP-62; 23.1 µM (inactive) in the experiment on Hs-578T; 10 µM (inactive) with MCF7; 24.2 µM (inactive) in the experiment on NCI-H23. Besides, the GI50 in the experiment on NCI-H522 was 13.3 µM (inactive); in the experiment with OVCAR-3, 14 µM (inactive); with RPMI-8226 it was 21 µM (inactive); in the experiment with RXF 393 it was 39.5 µM (inactive); in the experiment on SK-MEL-2 it was 18 µM (inactive); with SK-MEL-5 it was 12.6 µM (inactive). Further, the results for the GI50 in the experiment with SK-OV-3 and in the experiment with SNB-19 were 17.7 µM (inactive) and 32.4 µM (inactive), respectively.
Consider `Cc1ccc(S(=O)(=O)N2CCCN(S(=O)(=O)c3ccc(C)cc3)CC2)cc1`, for which the GI50 was more than 100 µM in the experiment on HCT-15; > 100 µM (inactive) in the experiment with Hs-578T; 0.0578 µM (active) with LOX IMVI; > 100 µM (inactive) in the experiment with MCF7; > 100 µM (inactive) in the experiment on NCI-H23; > 100 µM (inactive) with NCI-H522. Moreover, the GI50 in the experiment with OVCAR-3, in the experiment with RXF 393, in the experiment with SK-MEL-5 and in the experiment on SNB-19 was > 100 µM (inactive) throughout.
`Cc1c(-c2ccccc2)[nH]c2cc(Cl)ccc2c1=O`: the GI50 in the experiment on EKVX was > 100 µM (inactive); in the experiment on HCT-15, 17.2 µM; in the experiment on HOP-62 it was 23 µM (inactive); with Hs-578T, 14.8 µM (inactive); with LOX IMVI it was 89.5 µM (inactive); in the experiment on MCF7, 37 µM (inactive). The GI50 with NCI-H23 is 36.3 µM (inactive); in the experiment on OVCAR-3 it was 56.9 µM (inactive); in the experiment with RPMI-8226 it was > 100 µM (inactive); with RXF 393, 18.6 µM (inactive); in the experiment on SK-MEL-2, 37.8 µM (inactive); with SK-MEL-5, 35.1 µM (inactive). In addition, the GI50 in the experiment on SK-OV-3 was 39.4 µM (inactive); in the experiment with SNB-19, 52.8 µM (inactive).
As to `CCN(CC)C(=O)CCN1CC1`, the GI50 in the experiment with EKVX was > 10 µM (inactive); with HCT-15, more than 10 µM; with HOP-62, > 10 µM (inactive); in the experiment with Hs-578T, > 10 µM (inactive); in the experiment on LOX IMVI, > 10 µM (inactive); with MCF7, > 10 µM (inactive). Moreover, the GI50 in the experiment with NCI-H23, with NCI-H522, in the experiment on OVCAR-3, in the experiment with RPMI-8226, in the experiment with RXF 393 and with SK-MEL-2 was > 10 µM (inactive) in each case. The GI50 with SK-MEL-5, with SK-OV-3 and with SNB-19 was > 10 µM (inactive) throughout.
As for `O=c1[nH]c(=S)[nH]n1C(=S)n1[nH]c(=S)[nH]c1=O`, the GI50 in the experiment on EKVX is > 100 µM (inactive); in the experiment on HCT-15 it was more than 100 µM; with HOP-62, > 100 µM (inactive); in the experiment with Hs-578T it was > 100 µM (inactive); in the experiment on LOX IMVI it was 60.4 µM (inactive); in the experiment with MCF7 it was 2.94 µM (inactive). Moreover, the GI50 in the experiment on NCI-H23 is > 100 µM (inactive); in the experiment with NCI-H522, > 100 µM (inactive); with OVCAR-3 it was 41.7 µM (inactive); with RPMI-8226 it was 89.1 µM (inactive); in the experiment with RXF 393, > 100 µM (inactive); in the experiment with SK-MEL-2, > 100 µM (inactive). Moreover, the GI50 with SK-MEL-5 and in the experiment on SNB-19 was > 100 µM (inactive) in each case.
As for `Cc1nc2[nH]ncn2c(=O)c1CCCl`, the GI50 in the experiment with EKVX was > 10 µM (inactive); in the experiment on HCT-15, more than 10 µM; in the experiment with HOP-62, > 10 µM (inactive); in the experiment with Hs-578T, > 10 µM (inactive); in the experiment on LOX IMVI it was > 10 µM (inactive); in the experiment on MCF7, > 10 µM (inactive). In addition, the GI50 in the experiment on NCI-H23, in the experiment on NCI-H522, with RPMI-8226, in the experiment with RXF 393, in the experiment on SK-MEL-2 and in the experiment on SK-MEL-5 was > 10 µM (inactive) in each case. Further, the GI50 in the experiment with SK-OV-3 and in the experiment on SNB-19 was > 10 µM (inactive) each time.
`COc1cc([N+](=O)[O-])ccc1NC1=CC(=O)CCC1`: the GI50 in the experiment with EKVX is > 100 µM (inactive); in the experiment on HCT-15 it was more than 100 µM; with HOP-62, > 100 µM (inactive); in the experiment on Hs-578T, > 100 µM (inactive); in the experiment with LOX IMVI it was > 100 µM (inactive); with MCF7 it was > 100 µM (inactive). Moreover, the GI50 in the experiment with NCI-H23, in the experiment on OVCAR-3, in the experiment with RPMI-8226, in the experiment with RXF 393, in the experiment with SK-MEL-2 and in the experiment on SK-MEL-5 was > 100 µM (inactive) throughout. The GI50 with SK-OV-3 and with SNB-19 was > 100 µM (inactive) each time.
`Cc1cc(C)n(C(=O)C(C)Sc2nnc(SC(C)C(=O)n3nc(C)cc3C)s2)n1` (stereo unspecified): the GI50 is > 100 µM (inactive) in the experiment with EKVX; more than 100 µM with HCT-15; > 100 µM (inactive) in the experiment on HOP-62; > 100 µM (inactive) in the experiment on Hs-578T; > 100 µM (inactive) with LOX IMVI; > 100 µM (inactive) with MCF7. The GI50 in the experiment on NCI-H23, with OVCAR-3, with RPMI-8226, with RXF 393, with SK-MEL-2 and in the experiment on SK-MEL-5 was > 100 µM (inactive) throughout. Further, the GI50 in the experiment with SK-OV-3 and in the experiment with SNB-19 was > 100 µM (inactive) throughout.
`C=C1C(=O)O[C@H]2C/C(C=O)=C\[C@H]3O[C@H]3/C(COC(=O)C(C)C)=C/CC12` (stereo partly specified): the GI50 with EKVX was 16.3 µM (inactive); in the experiment with HCT-15, 3.3 µM; in the experiment on HOP-62 it was 13.6 µM (inactive); in the experiment on Hs-578T, 2.89 µM (inactive); with LOX IMVI, 3.21 µM (inactive); with MCF7 it was 5.21 µM (inactive). Further, the GI50 was 4.97 µM (inactive) in the experiment on NCI-H23; 3.39 µM (inactive) with NCI-H522; 6.49 µM (inactive) with OVCAR-3; 2.52 µM (inactive) with RPMI-8226; 3.49 µM (inactive) in the experiment on RXF 393; 9.42 µM (inactive) in the experiment with SK-MEL-5. Besides, the GI50 in the experiment with SNB-19 was 15.8 µM (inactive).
`CCOC(=O)Cn1nnc2cc(Nc3c(C)[n+]([O-])c4cc(F)c(OCC)cc4[n+]3[O-])ccc21`: the GI50 with EKVX was > 100 µM (inactive); in the experiment with HCT-15 it was more than 100 µM; with HOP-62 it was 27.5 µM (inactive); in the experiment on Hs-578T, 41.8 µM (inactive); in the experiment on LOX IMVI, > 100 µM (inactive); in the experiment with MCF7, > 100 µM (inactive). In addition, the GI50 with NCI-H23 was > 100 µM (inactive); in the experiment with NCI-H522, > 100 µM (inactive); in the experiment on OVCAR-3, > 100 µM (inactive); in the experiment with RPMI-8226, > 100 µM (inactive); with RXF 393 it was 31.8 µM (inactive); with SK-MEL-2 it was 32.4 µM (inactive). The GI50 was > 100 µM (inactive) in the experiment on SK-MEL-5 and 38.6 µM (inactive) in the experiment with SK-OV-3.
Consider `C=C1C(=O)O[C@@]23C1CC[C@@H](C)C2CC[C@@]1(C)OC31` (stereo partly specified), for which the GI50 in the experiment with EKVX was 12.5 µM (inactive); in the experiment with HCT-15, 9.33 µM; with HOP-62, 10 µM (inactive); in the experiment with Hs-578T it was 16 µM (inactive); with LOX IMVI, 11.5 µM (inactive); with MCF7, 5.96 µM (inactive). Further, the GI50 in the experiment on NCI-H23 was 7.18 µM (inactive); in the experiment on NCI-H522, 6.32 µM (inactive); with OVCAR-3, 3.27 µM (inactive); in the experiment with RPMI-8226, 2.9 µM (inactive); in the experiment with RXF 393, 16.7 µM (inactive); with SK-MEL-2, 5.58 µM (inactive). Further, the GI50 is 3.24 µM (inactive) in the experiment on SK-MEL-5, 16 µM (inactive) in the experiment on SK-OV-3 and 18.6 µM (inactive) with SNB-19.
Consider `Cc1cc(N(CCC#N)CCC#N)ccc1C(/N=N/c1ccc(Cl)cc1)=N\NC(=O)c1ccccc1`, for which the GI50 in the experiment with EKVX was 37.9 µM (inactive); in the experiment on HCT-15, 16 µM; with HOP-62 it was 59.6 µM (inactive); in the experiment on Hs-578T it was 17 µM (inactive); with MCF7 it was 13.6 µM (inactive); in the experiment with NCI-H23, 33.7 µM (inactive). Further, the GI50 in the experiment on NCI-H522 was 18.4 µM (inactive); in the experiment on OVCAR-3, 42.1 µM (inactive); with RPMI-8226, 54.2 µM (inactive); with RXF 393, 49.2 µM (inactive); with SK-MEL-2, 84.1 µM (inactive); in the experiment with SK-MEL-5, 22 µM (inactive). The GI50 was 42.6 µM (inactive) with SK-OV-3 and 41.9 µM (inactive) in the experiment with SNB-19.
With `C=C1C(=O)O[C@H]2C1C[C@H](O)[C@@]1(C)OC1CC[C@@]1(C)O[C@H]21` (stereo partly specified), the GI50 is 18.2 µM (inactive) with EKVX; 18.7 µM in the experiment with HCT-15; 27.6 µM (inactive) in the experiment with HOP-62; 37.3 µM (inactive) in the experiment on Hs-578T; 15.4 µM (inactive) in the experiment with MCF7; 19.5 µM (inactive) in the experiment with NCI-H23. In addition, the GI50 in the experiment on NCI-H522 was 2.79 µM (inactive); in the experiment with RPMI-8226 it was 6.65 µM (inactive); in the experiment with RXF 393, 22.5 µM (inactive); in the experiment on SK-MEL-2, 26.5 µM (inactive); with SK-MEL-5 it was 20.4 µM (inactive); with SK-OV-3, 61.8 µM (inactive).
For `Cc1c2oc3c(C)ccc(C(=O)NC4C(=O)NC(Cc5ccc(O)cc5)C(=O)N5CCCC5C(=O)N(C)CC(=O)N(C)C(C(C)C)C(=O)OC4C)c3nc-2c(C(=O)NC2C(=O)NC(Cc3ccc(O)cc3)C(=O)N3CCCC3C(=O)N(C)CC(=O)N(C)C(C(C)C)C(=O)OC2C)c(N)c1=O` (stereo unspecified) (I: TYP[Sar][NMeV] / II: TYP[Sar][NMeV]; ester I:1-I:C, II:1-II:C; linker I:N-II:N via Actinocin(9to1); configuration not given here), the GI50 with EKVX was 70.5 µM (inactive); in the experiment with HCT-15, 8.65 µM; with HOP-62, 2.33 µM (inactive); with Hs-578T, 16.6 µM (inactive); with LOX IMVI it was 0.0859 µM (active); in the experiment on MCF7, 0.0805 µM (active). For the same compound, the GI50 in the experiment on NCI-H23 is 0.494 µM (active); in the experiment on NCI-H522, 0.877 µM (active); in the experiment with OVCAR-3, 1.63 µM (inactive); with RPMI-8226, 0.282 µM (active); in the experiment with RXF 393, 0.406 µM (active); in the experiment on SK-MEL-5, 0.163 µM (active). In addition, the GI50 with SK-OV-3 was 10.5 µM (inactive); in the experiment with SNB-19, 0.449 µM (active).
